We go through 3 compounds from ChEMBL document CHEMBL5154738, “Design, synthesis and structural-activity relationship studies of phanginin A derivatives for regulating SIK1-cAMP/CREB signaling to suppress hepatic gluconeogenesis” (Eur J Med Chem, 2022).

Calls of active or inactive are those of the source. No cut-off for these calls is given here.

Data set [1] is described as follows: Cytotoxicity against C57BL/6J mouse primary hepatocytes assessed as cell viability at 50 uM incubated for 24 hrs by MTT assay relative to control. Type of data set: toxicity, cell-based, Hepatocyte. As to conditions: read-out: Activity. A general note: Formazan colour is commonly taken as a measure of viable cells.
Data set [2] has as its system Mus musculus. Description: Anti-hyperglycemic activity in ob/ob mouse assessed as reduction in fasting blood glucose level at 100 mg/kg, po administered once daily and measured after 4 days relative to control. It counts as functional. As to conditions: 96 h, time 4 day.
A short description of data set [3]: Cytotoxicity against C57BL/6J mouse primary hepatocytes assessed as cell viability at 200 uM incubated for 24 hrs by MTT assay relative to control. Type of data set: toxicity, cell-based, Hepatocyte. Conditions: read-out: Activity.
A short description of data set [4]: Cytotoxicity against C57BL/6J mouse primary hepatocytes assessed as cell viability at 100 uM incubated for 24 hrs by MTT assay relative to control. As to conditions: read-out: Activity. It counts as toxicity, cell-based, Hepatocyte.
Data set [5] in a line: Inhibition of gluconeogenesis in C57BL/6J mouse primary hepatocytes assessed as inhibition of glucagon-stimulated glucose production at 10 uM preincubated for 1.5 hrs followed by lactate and pyruvate addition and later stimulated with glucagon for 4 hrs. Type of data set: functional. Conditions: Hepatocyte, time 5.5 hrs.
Data set [6] in a line: Inhibition of gluconeogenesis in C57BL/6J mouse primary hepatocytes assessed as inhibition of glucagon-stimulated glucose production at 5 uM preincubated for 1.5 hrs followed by lactate and pyruvate addition and later stimulated with glucagon for 4 hrs. Type of data set: functional. Conditions: Hepatocyte, time 5.5 hrs.
In data set [7] the test system is Mus musculus. Description: Anti-hyperglycemic activity in ob/ob mouse assessed as reduction in non-fasting blood glucose level at 100 mg/kg, po administered once daily and measured after 21 days relative to control. It counts as functional. As to conditions: 504 h, time 21 day.
A short description of data set [8]: Inhibition of gluconeogenesis in C57BL/6J mouse primary hepatocytes assessed as inhibition of glucagon-stimulated glucose production at 2.5 uM preincubated for 1.5 hrs followed by lactate and pyruvate addition and later stimulated with glucagon for 4 hrs. Type of data set: functional. As to conditions: Hepatocyte, time 5.5 hrs.
The nature of data set [9]: Cytotoxicity against C57BL/6J mouse primary hepatocytes assessed as cell viability at 20 uM incubated for 24 hrs by MTT assay relative to control. It counts as toxicity, cell-based, Hepatocyte. Conditions: read-out: Activity.
Data set [10] has as its system Mus musculus. The data set is described as follows: In vivo activation of SIK1 in ob/ob mouse assessed as increase in SIK1 phosphorylation at Thr182 residue in liver at 100 mg/kg, po administered once daily for 21 days by western blot analysis. It counts as functional, organism-based. Conditions: time 21.0 day. (In general: A western blot detects proteins with antibodies after separation by electrophoresis.)

Data set [11] relates to Mus musculus. Description: Anti-hyperglycemic activity in ob/ob mouse assessed as reduction in non-fasting blood glucose level at 100 mg/kg, po administered once daily and measured after 8 days relative to control. Type of data set: functional. Conditions: 192 h, time 8 day.
A short description of data set [12]: Cytotoxicity against C57BL/6J mouse primary hepatocytes assessed as cell viability at 10 uM incubated for 24 hrs by MTT assay relative to control. It counts as toxicity, cell-based, Hepatocyte. Conditions: read-out: Activity.
For data set [13], the system named is Mus musculus. The data set is described as follows: In vivo activation of SIK1 in ob/ob mouse assessed as decrease in CREB phosphorylation in liver at 100 mg/kg, po administered once daily for 21 days by western blot analysis. Type of data set: functional, organism-based. Conditions: time 21.0 day.
Data set [14] relates to Mus musculus. The data set is described as follows: Anti-hyperglycemic activity in ob/ob mouse assessed as reduction in fasting blood glucose level at 100 mg/kg, po administered once daily and measured after 21 days relative to control. Type of data set: functional. As to conditions: 504 h, time 21 day.
The subject of data set [15] is Mus musculus. The data set is described as follows: Acute hypoglycemic activity in type 2 diabetic ob/ob mouse assessed as reduction in fasting blood glucose level at 100 mg/kg, po administered as single dose and measured for 10 hrs. It counts as functional, organism-based.
Data set [16] is described as follows: Inhibition of gluconeogenesis in C57BL/6J mouse primary hepatocytes assessed as inhibition of glucagon-stimulated glucose production at 0.5 mM preincubated for 1.5 hrs followed by lactate and pyruvate addition and later stimulated with glucagon for 4 hrs. Type of data set: functional. As to conditions: Hepatocyte, 5.5 h.
Data set [17] deals with Serine/threonine-protein kinase SIK1 (Mus musculus) (UniProt Q60670). The data set is described as follows: Activation of SIK1 in C57BL/6J mouse primary hepatocytes assessed as decrease in glucagon-stimulated intracellular cAMP accumulation by ELISA. Type of data set: cell-based. Conditions: Primary hepatocyte, filed as activator, dose 2.5-10 µM, DDE = dose-dependent effect.
Serine/threonine-protein kinase SIK1 (Mus musculus), sequence (Q60670 whole entry): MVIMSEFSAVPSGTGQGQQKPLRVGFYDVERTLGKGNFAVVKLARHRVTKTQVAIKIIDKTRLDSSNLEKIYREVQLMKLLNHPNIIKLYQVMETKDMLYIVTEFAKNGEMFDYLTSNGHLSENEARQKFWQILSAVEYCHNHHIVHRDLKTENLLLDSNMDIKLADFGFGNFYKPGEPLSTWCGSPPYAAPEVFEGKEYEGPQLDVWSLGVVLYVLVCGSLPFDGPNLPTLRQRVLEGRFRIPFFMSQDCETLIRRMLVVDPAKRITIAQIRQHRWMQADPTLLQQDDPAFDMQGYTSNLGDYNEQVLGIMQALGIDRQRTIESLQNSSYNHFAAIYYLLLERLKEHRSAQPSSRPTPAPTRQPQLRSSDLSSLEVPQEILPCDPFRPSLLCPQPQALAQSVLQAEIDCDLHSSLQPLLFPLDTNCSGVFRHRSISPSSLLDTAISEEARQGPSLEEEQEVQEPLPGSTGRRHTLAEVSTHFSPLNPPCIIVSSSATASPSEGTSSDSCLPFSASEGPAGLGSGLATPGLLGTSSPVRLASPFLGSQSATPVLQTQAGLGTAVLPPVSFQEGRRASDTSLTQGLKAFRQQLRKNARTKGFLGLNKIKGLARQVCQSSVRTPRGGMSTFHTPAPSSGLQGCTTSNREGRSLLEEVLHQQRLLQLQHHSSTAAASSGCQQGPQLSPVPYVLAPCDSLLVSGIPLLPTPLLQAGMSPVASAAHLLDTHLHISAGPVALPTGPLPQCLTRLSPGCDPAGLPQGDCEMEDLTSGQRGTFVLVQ

For data set [18] the target is unchanged. Description: Activation of SIK1 in C57BL/6J mouse primary hepatocytes assessed as increase in SIK1 phosphorylation at Thr182 residue measured after 2 hrs by western blot analysis. It counts as cell-based. As to conditions: Primary hepatocyte, filed as activator, dose 2.5-10 µM, DDE = dose-dependent effect.
Data set [19] has the same target. The data set is described as follows: Activation of SIK1 in C57BL/6J mouse primary hepatocytes assessed as decrease in CREB phosphorylation at 2.5 to 10 uM incubated for 2 hrs by western blot analysis. Type of data set: cell-based. Conditions: Primary hepatocyte, filed as activator, dose 2.5-10 µM, DDE = dose-dependent effect.
For data set [20], the system named is Hepatocyte. Description: Inhibition of gluconeogenesis in C57BL/6J mouse primary hepatocytes assessed as inhibition of glucose production preincubated for 1.5 hrs followed by lactate and pyruvate addition. Type of data set: functional, cell-based. As to conditions: dose 2.5-10 µM, DDE = dose-dependent effect.
The test system of data set [21] is Mus musculus. Description: Anti-hyperlipidemic activity in ob/ob mouse assessed as reduction in serum triglyceride level at 100 mg/kg, po administered once daily for 21 days. Type of data set: functional, organism-based. As to conditions: time 21.0 day.
For data set [22], the target named is Serine/threonine-protein kinase SIK1 (Mus musculus) (UniProt Q60670). Description: Activation of SIK1 in C57BL/6J mouse primary hepatocytes assessed as decrease in glucagon-stimulated CREB phosphorylation at 2.5 to 10 uM incubated for 2 hrs by western blot analysis. It counts as cell-based. Conditions: Primary hepatocyte, filed as activator, dose 2.5-10 µM, DDE = dose-dependent effect.

Data set [23] concerns Mus musculus. Description: Anti-hyperlipidemic activity in ob/ob mouse assessed as reduction in total cholesterol level in serum at 100 mg/kg, po administered once daily for 21 days. Type of data set: functional, organism-based. As to conditions: time 21.0 day.
For data set [24], the system named is Hepatocyte. The data set is described as follows: Inhibition of gluconeogenesis in C57BL/6J mouse primary hepatocytes assessed as inhibition of glucagon-stimulated glucose production preincubated for 1.5 hrs followed by lactate and pyruvate addition and later stimulated with glucagon for 4 hrs. As to conditions: dose 2.5-10 µM, time 5.5 hrs, DDE = dose-dependent effect. It counts as functional, cell-based.

A word on the inhibition in vivo: it is the share of the control response that was lost under treatment. One may read the inhibition as the drop in the measured response relative to a control, in per cent. For the compound `COC(=O)[C@@]12CCCC3([C@H](O)OC1)[C@H]2CC[C@H]1[C@@H](C)c2ccoc2C[C@@H]13`, the viability at 24 h, 50 µM in data set [1] was determined as 29.4%. Moreover, the inhibition in vivo at 100 mg/kg worked out at 24% in the data set with Mus musculus [2], 23.8% in the data set on Mus musculus [7], 28.2% with Mus musculus [11] and 33.3% with Mus musculus [14]. For the same compound, the viability at 24 h, 200 µM in data set [3] amounted to 7.2%. In [4], the viability at 24 h, 100 µM turned out to be 7.5%. For the same compound, the inhibition at 10 µM in [5] was 70.5%. Also, in data set [6], the inhibition at 5 µM came out at 49.7%. Besides, in data set [8], the inhibition at 2.5 µM came to 24.9%. In addition, the viability at 24 h, 20 µM in [9] was found to be 84.6%. For the same compound, the result in the data set on Mus musculus [10], in the data set with Mus musculus [13] and in the data set with Mus musculus [15] was Active. Moreover, the viability at 24 h, 10 µM in [12] amounted to 99%.
With `CN(C)C(=N)NC(=N)N` [METFORMIN], in data set [16], the inhibition at 500 µM worked out at 51.5%.
With `COC(=O)[C@@]12CCCC3([C@H](OCCO)OC1)[C@H]2CC[C@H]1[C@@H](C)c2ccoc2C[C@@H]13`, the viability at 24 h, 50 µM in data set [1] amounted to 90.1%. For the same compound, the inhibition in vivo at 100 mg/kg with Mus musculus [2] was found to be 32.3%; in the data set with Mus musculus [7], 37.6%; in the data set on Mus musculus [11], 41.1%; with Mus musculus [14] it was 41.2%. In data set [3], the viability at 24 h, 200 µM stood at 9.2%. Besides, the viability at 24 h, 100 µM in data set [4] was found to be 11.1%. Besides, the inhibition at 10 µM in [5] was found to be 91.4%. Besides, the Activity entry in data set [17], in [18], in data set [19] and in data set [22] was “Dde” in each case. Also, the inhibition at 5 µM in data set [6] was 79.6%. The inhibition at 2.5 µM in data set [8] came out at 53.4%. For the same compound, the viability at 24 h, 20 µM in [9] stood at 86.1%. The result in the data set with Mus musculus [10], in the data set with Mus musculus [21], in the data set on Mus musculus [13], in the data set on Mus musculus [23] and with Mus musculus [15] was Active. Besides, the inhibition entry with Hepatocyte [20] and in the data set on Hepatocyte [24] was “Dde” in each case. Further, the viability at 24 h, 10 µM in data set [12] is 98.4%.
